Results as given in paper PMC10644391, “Targeted Reversible Covalent Modification of a Noncatalytic Lysine of the Krev Interaction Trapped 1 Protein Enables Site-Directed Screening for Protein–Protein Interaction Inhibitors” (ACS Pharmacology & Translational Science, 2023).

Columns and labels:
HEG1-KRIT1 PPI [1] = molecular target: T1, HEG1-KRIT1 PPI (Homo sapiens, UniProt O00522); assay: HEG1-KRIT1 PPI fluorescence polarization (FP) time-resolved assay; assay type: biochemical
T1 construct: a recombinant FERM domain (residues 417–736) of KRIT1; made in house; host or cells: E. coli
Description: To evaluate the binding kinetics of HNA inhibitors, a fluorescence polarization (FP) time-resolved assay that uses a recombinant FERM domain (residues 417–736) of KRIT1 and a fluorescence-tagged HEG1 cytoplasmic tail (Cy5-HEG1 7-mer peptide) was developed (Supporting Information). Using HNA as a test compound, the FP data, expressed as millipolarization (mP) units, were obtained every 10 min over the course of 4–7 h. […] Thus, for practical purposes, a 4-h incubation time was established as the standard assay time for non-kinetic IC50 evaluations.
Fluorescence Polarization Assay and Optimization
The KRIT1 FERM domain (residues 417-736) was cloned into plasmid and recombinantly expressed in E. coli as previously described,1 while the Cy5-HEG1 7- mer peptide bearing the Cy5 dye as fluorescent probe was prepared by and purchased from GenScript (New Jersey, US). HEPES- buffered saline (HBS) buffer was supplemented (0.01%) with detergent Triton X -100 to minimize protein adsorption to the microplate. The assay was setup in a 96-well plate plated with 80 nM KRIT1, 4 nM Cy5- HEG1 probe, and either non-tagged HEG1 peptide or HNA as inhibitor (in 5% DMSO). To account for background fluorescence that could interfere with the assay, background wells with only test compound and Cy5 -HEG1 probe (no KRIT1) were also plated. The FP data, expressed as millipolarization (mP) units, were obtained […]
course of 4-7 hours (for kinetic characterization) using a Tecan Spark® Multimode Microplate Reader. The background mP (no KRIT1) was subtracted from mP to account for background fluorescence. All assays were done in triplicates.
Several FP assay conditions were optimized. First, the HEG1 probe engagement of KRIT1 was examined and its interaction was determined to be rapid equilibrium, thus any observed time dependance in response when an inhibitor displaces the probe is the result of inhibitor exchange kinetics and not that of the probe. Next, the affinity of KRIT1 for the probe (Kd) was examined by following the change in polarization signal as a function of a matrix of five probe concentrations and four KRIT1 concentrations (Figure S1B ). A global fit of equation 3 to polarization responses of the inhibitor vs KRIT1 concentration […]
even after 7 hours of incubation. For practical purposes, we have chosen 4 hours as our standard incubation time since it appeared that most of the inhibition has been reached at this time point. The kinetic characterization of HNA as a HEG1- KRIT1 inhibitor will be discussed in greater detail in the kinetic section […]
values to those obtained from the flow cytometry assay. Finally, to assess the robustness of the FP assay, […]
a robust assay) representing an excellent assay with clear differences between positive and negative controls.2 Evaluation of HEG1-KRIT1 inhibitors prior to the optimization of the FP assay were done using flow cytometry, while subsequent compounds were evaluated using the FP assay. All subsequent assay plates included HNA as comparison and control.
Figure S1. Optimization of fluorescence polarization (FP) assay.
HEG1-KRIT1 inhibition. (B) Optimization of KRIT1 protein and Cy5 -HEG1 probe concentrations. Dose-response curve of HNA obtained via fluorescence polarization (C) and flow cytometry (D) assays show […]
All assays were tested in technical duplicates or triplicates in at least 2 different

[2] = pKa by potentiometric titration (Sirius T3); assay type: physicochemical; settings: potentiometric titrations, means ± SD of three titrations
[3] = HEK293 cytotoxicity, resazurin cell viability assay; assay type: cell-based; settings: human, HEK293 cells, means ± SD, n = 3
Description: Maintenance of HEK293 Cells. HEK293 cell lines (American Type Culture Collection (ATCC)) were cultured in Dulbecco's Modified Eagle Medium (DMEM, Invitrogen) supplemented with 10% heat-inactivated fetal bovine serum (FBS, Gibco) and penicillin-streptomycin (1%). Cells were kept at 37 °C and 5% CO2, and were passaged every 72 hours.
Resazurin Cell Viability Assay. The cytotoxicity in HEK293 cells were determined using a resazurin cell viability assay. Test compounds in DMSO were diluted to 100x desired final assay concentration (maximum concentration of 100 µM) in eight-point dose response. 1 µL of test compounds were plated in a 96-well clear bottom tissue culture microplate. 49 µL of cell culture media was added to each well. Cells were diluted to 4 x 10^5 cells/mL, and 50 µL of this cell suspension was seeded to each well for a total of 2 x 10^4 cells/well. The assay plate was kept at 37 °C and 5% CO 2 for either 4 or 48 hours. At the end of the incubation time, 20 µL of 0.5 mM resazurin sodium salt (Alfa Aesar) solution in PBS was added to each well. The assay plates were incubated further at 37 °C for 2 hours. Fluorescence was measured at 531 nm and 595 nm excitation and emission wavelengths, respectively, using a 2104 EnVision® multilabel plate reader. CC50 values were obtained using sigmoidal curved generated with Prism GraphPad (San Diego, CA). SD values are reported as the standard deviation of the CC50 values of 3 biological replicates. All

HEG1-KRIT1 PPI [4] = settings: previously reported data; read-out: HEG1-KRIT1 IC50, flow cytometry assay; cited from earlier work
KLF2 = tested on: KLF2; parameters: method as in PMID 33977234; settings: HUVECs, 24 h of incubation; cited from earlier work
KLF4 = tested on: KLF4; parameters: method as in PMID 33977234; settings: HUVECs, 24 h of incubation; cited from earlier work
[5] = global fit across six or more inhibitor concentrations, means ± SD, n = 3

T1 sequence (O00522 417-736): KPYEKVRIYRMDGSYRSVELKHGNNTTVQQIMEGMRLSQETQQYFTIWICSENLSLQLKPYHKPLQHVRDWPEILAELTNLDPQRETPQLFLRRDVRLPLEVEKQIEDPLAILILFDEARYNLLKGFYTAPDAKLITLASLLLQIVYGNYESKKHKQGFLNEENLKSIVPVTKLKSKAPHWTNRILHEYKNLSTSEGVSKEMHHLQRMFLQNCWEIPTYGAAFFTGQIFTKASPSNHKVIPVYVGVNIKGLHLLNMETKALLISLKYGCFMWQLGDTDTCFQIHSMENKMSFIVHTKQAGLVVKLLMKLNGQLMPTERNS

SMILES: O=Cc1c(O)ccc2ccccc12 [Compound 1, 2-hydroxy-1-naphthaldehyde]
- difference in affinity, KRIT1 (FP assay) vs N-α-acetyl lysine (HEG1-KRIT1 PPI [1]; Ki for KRIT1 vs Kd for N-α-acetyl lysine): > 70,000 fold
- IC50 (HEG1-KRIT1 PPI [1]; fluorescence polarization assay after 4 h of incubation, means ± SD, n = 3): 8.14 ± 0.82 µM
- inhibition of HEG1-KRIT1 PPI upon co-incubation with free lysine (HEG1-KRIT1 PPI [1]; free lysine 50 μM in the assay buffer): did not meaningfully change
- HEG1-KRIT1 PPI Assay kon (HEG1-KRIT1 PPI [1]; [5]): 14.4 ± 0.583 M⁻¹ s⁻¹
- koff (HEG1-KRIT1 PPI [1]; [5]): 3.31e-05 s⁻¹
- HEG1-KRIT1 PPI Assay kon (HEG1-KRIT1 PPI [1]; global fit across six or more inhibitor concentrations, means ± SD, n = 3, listed as HNA): 14.4 M⁻¹ s⁻¹
- Ki (HEG1-KRIT1 PPI [1]; global fit, means ± SD, n = 3, unit in Figure 2E, read-out: HEG1-KRIT1 PPI Assay Ki (koff/kon)): 2.29 ± 0.44 µM
- pKa [2]: 7.34 ± 0.02
- CC50 at 48 h [3]: ~100 µM
- IC50 (HEG1-KRIT1 PPI [4]): 3.09 µM
- KLF2 expression (KLF2): upregulation
- KLF4 expression (KLF4): upregulation
